SMILES strings stand for the structures.

Common to all, as to type: cell-based
Test [1] has as its target T1, estrogen receptor-α (ER) (Homo sapiens, UniProt P03372).
T1 construct: expression plasmids for full-length human ERα; expressed in transfected cells; host or cells: LNCaP
T1 sequence (P03372 1-595): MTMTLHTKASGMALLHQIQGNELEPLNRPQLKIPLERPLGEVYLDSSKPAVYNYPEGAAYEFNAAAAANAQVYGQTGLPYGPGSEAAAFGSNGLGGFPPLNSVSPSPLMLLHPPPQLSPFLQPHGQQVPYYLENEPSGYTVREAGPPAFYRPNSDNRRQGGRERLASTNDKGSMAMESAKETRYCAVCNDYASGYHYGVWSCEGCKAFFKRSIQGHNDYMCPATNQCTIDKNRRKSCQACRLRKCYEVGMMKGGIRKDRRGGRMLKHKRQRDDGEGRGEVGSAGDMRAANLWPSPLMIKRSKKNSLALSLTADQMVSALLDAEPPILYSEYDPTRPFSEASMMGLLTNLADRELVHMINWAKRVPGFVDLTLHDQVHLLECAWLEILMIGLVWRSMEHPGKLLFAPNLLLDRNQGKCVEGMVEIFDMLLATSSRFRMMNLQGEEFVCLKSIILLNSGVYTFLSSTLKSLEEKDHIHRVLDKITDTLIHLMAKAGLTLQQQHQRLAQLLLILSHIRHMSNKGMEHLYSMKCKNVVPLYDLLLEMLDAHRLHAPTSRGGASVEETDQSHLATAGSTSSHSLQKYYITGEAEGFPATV
The test is described as follows: ERE-luciferase reporter assay in LNCaP cells cotransfected with full-length human ERα. Particulars: 1.9 μM 8d, 10 nM E2 (estradiol), 24 h, LNCaP cells (FIG. 2D). The procedure:
(§1) To assess specificity for the AR, parallel experiments were performed in LNCaP cells with endogenous AR and ectopic expression of other closely related human hormone receptors such as the progesterone receptor-beta (PRβ), glucocorticoid receptor (GR) and estrogen receptor-α (ER).
For 8d, 1 μg/mL=1.9 μM in FIGS. 2A-2D.
(A reporter such as luciferase makes a cellular process visible.)

Test [2] has as its system DU145 cells. The test is described as follows: DU145 cell viability, alamarBlue Cell Viability Assay. The following applies: day 3, at concentrations that reduced LNCaP proliferation. The source says:
(§2) Effects of 8d (also referred to as I-EPI-002) on androgen-dependent proliferation of LNCaP cells treated with R1881 were compared with PC3 and DU145 cell viability by alamarBlue Cell Viability Assay (FIG. 16).
A general note: The colour change of resazurin is a common sign of viable cells or microbes.

Test [3] concerns LNCaP cells. Description: Androgen-dependent proliferation of LNCaP cells, alamarBlue Cell Viability Assay. The following applies: LNCaP treated with R1881, day 4, alamarBlue.
From the text: as §2

Test [4] concerns PC3 cells. Description: PC3 cell viability, alamarBlue Cell Viability Assay. Particulars: day 3, at concentrations that reduced LNCaP proliferation.
From the text: as §2

Test [5] concerns the target T2, progesterone receptor-beta (PRβ) (Homo sapiens, UniProt P06401).
T2 construct: expression plasmids for full-length human PRβ; expressed in transfected cells; host or cells: LNCaP
T2 sequence (P06401 1-933): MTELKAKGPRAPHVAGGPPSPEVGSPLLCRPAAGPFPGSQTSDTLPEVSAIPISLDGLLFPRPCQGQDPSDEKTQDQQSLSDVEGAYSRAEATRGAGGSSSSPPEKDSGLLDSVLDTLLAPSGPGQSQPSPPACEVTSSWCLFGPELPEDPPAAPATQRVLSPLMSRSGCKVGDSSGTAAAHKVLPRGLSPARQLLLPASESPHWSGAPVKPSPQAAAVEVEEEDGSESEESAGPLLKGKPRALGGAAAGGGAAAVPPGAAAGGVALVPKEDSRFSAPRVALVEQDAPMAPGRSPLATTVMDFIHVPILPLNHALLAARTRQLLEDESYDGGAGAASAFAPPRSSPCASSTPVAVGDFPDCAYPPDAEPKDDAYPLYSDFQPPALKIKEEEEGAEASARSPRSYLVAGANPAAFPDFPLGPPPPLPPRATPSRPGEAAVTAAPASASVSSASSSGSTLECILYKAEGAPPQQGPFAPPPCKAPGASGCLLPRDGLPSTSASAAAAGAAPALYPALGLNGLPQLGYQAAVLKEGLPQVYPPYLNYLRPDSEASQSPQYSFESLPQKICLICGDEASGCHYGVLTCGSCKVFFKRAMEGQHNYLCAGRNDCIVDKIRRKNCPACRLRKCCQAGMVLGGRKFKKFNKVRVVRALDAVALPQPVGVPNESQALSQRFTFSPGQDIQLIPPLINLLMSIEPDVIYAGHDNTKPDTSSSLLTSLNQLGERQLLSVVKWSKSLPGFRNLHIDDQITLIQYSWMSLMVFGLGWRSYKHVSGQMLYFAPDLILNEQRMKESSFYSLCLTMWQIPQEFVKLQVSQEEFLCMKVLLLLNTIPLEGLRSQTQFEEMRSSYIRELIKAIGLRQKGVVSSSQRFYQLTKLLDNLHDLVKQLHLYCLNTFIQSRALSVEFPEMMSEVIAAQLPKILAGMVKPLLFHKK
Description: PRE-luciferase reporter assay in LNCaP cells cotransfected with full-length human PRβ. Particulars: 1.9 μM 8d, 10 nM progesterone, 24 h, LNCaP cells (FIG. 2B). The method, then:
as §1
LNCaP cells were cotransfected with the expression plasmids for full-length human PRβ and the relative reporter (PRE-luciferase) for 24 h, and then treated with DMSO, 5 μM MDV3100, 25 μM Z, or 1.9 μM 8d with or without 10 nM progesterone for 24 h (FIG. 2B). Compound 8d had no effect on the transcriptional activity of closely related PRβ.

In the case of `CC(C)(c1ccc(OC[C@H](O)CO)cc1)c1ccc(OC[C@H](O)CCl)c(I)c1` [Compound 8d, (R)-3-(4-(2-(4-((S)-3-chloro-2-hydroxypropoxy)-3-iodophenyl)propan-2-yl)phenoxy)propane-1,2-diol], the “ERα activity (ERE-luciferase)” value in test [1] is “not inhibited”. Besides, in test [2], the “viability of DU145 cells” value is “no effect”. Besides, the “AR-dependent proliferation of LNCaP cells” value in test [3] is “reduced”. Further, the “viability of PC3 cells” value in test [4] was “no effect”. In test [5], the “transcriptional activity of PRβ (PRE-luciferase)” value was “no effect”.

(Values after US9375496B2, “Halogenated compounds for cancer imaging and treatment and methods for their use” (The University of British Columbia, priority 2013, dated 2016).)
